Results: US11753377B2, “Crystal form of 2-methyl-2-propanol and amino-substituted aryl compound” (ZHUHAI UNITED LABORATORIES CO., LTD., priority 2020, dated 2023)
Where two headings read alike, the source gives them in different places.

What was measured:
[1] = Corneal to plasma drug concentration after eye drop administration in rats; type: in vivo; conditions: male, rat, topical, SD rats
Protocol: Experimental objective: To study the ratio of corneal to plasma drug concentration after eye drop administration in rats
Experimental material: Male SD rats, 200-300 g, 7-9 weeks old, Shanghai Lingchang
Experimental processes: The candidate compound was prepared as a clear solution, and administrating to SD rats by eye drop administration. The vehicle for eye drops was 10% hydroxypropyl β-cyclodextrin aqueous solution, and the drug concentration in the eye drops was 5 mg/mL. Corneal and whole blood samples were collected at 1 and 4 hours, respectively. Corneal was homogenized using 15 mM phosphate buffer (PBS): MeOH (2:1, v:v) buffer, then the whole blood samples were centrifuged at 3000 r for 10 min, and the supernatant plasma samples were separated. 20 μL of the plasma samples and homogenate samples were respectively mixed with 400 μL of acetonitrile solution containing internal standard to precipitate protein, and the mixture was centrifuged, then 2 μL of the supernatant was injected. The plasma concentrations were quantitatively analyzed by LC-MS/MS analysis method; the drug concentrations in the cornea and plasma were measured respectively according to different time points, and the ratio of corneal/plasma was calculated.

[2] = Pharmacokinetics in cynomolgus monkeys, single intravenous injection; type: in vivo; conditions: male, cynomolgus monkey, plasma, 1 mg/kg single intravenous injection
Protocol: Experimental objective: To study pharmacokinetics of the compound in cynomolgus monkeys
Experimental material: Cynomolgus monkeys (male, 2.5-4 kg, greater than or equal to 2 years, Hainan Jingang)
(§1) Pharmacokinetic characteristics of the compound were tested by intravenous injection in monkeys according to the standard protocol. In the experiment, the candidate compound was prepared as a clear solution, and was administrating to cynomolgus monkeys at 1 mg/kg by single intravenous injection. A vehicle for intravenous injection was a 10% hydroxypropyl β-cyclodextrin aqueous solution. Whole blood samples were collected at 0.033, 0.083, 0.25, 0.5, 1, 2, 4, 8, 12, and 24 hours, centrifuged at 3000 r for 10 min, and the supernatant was separated to obtain plasma samples. 20 μL of plasma samples were mixed with 400 μL of acetonitrile solution containing internal standard to precipitate protein, and the mixture was centrifuged, then 2 μL of the supernatant was injected. Plasma concentrations were quantitatively analyzed by LC-MS/MS analysis method, and pharmacokinetic parameters, such as clearance rate, half-life, and area under the concentration-time curve, were calculated.

[3] = tested on: xerophthalmia in mice; assay: In vivo efficacy: scopolamine-induced xerophthalmia in mice (tear test, corneal fluorescence staining score); set-up: species or system C57BL/6J mice; conditions: scopolamine model, 0.5% eye drops 3 μL/eye 4 times/day
From the text: Subcutaneous injection of scopolamine may induce the xerophthalmia in mice. Decreased tear secretion and inflammatory infiltration can be observed by tear tests and corneal fluorescence staining scores. Furthermore, it is possible to predict whether the model can reach the expected severity at the beginning of the modeling.
Experimental Design: • Twenty animals were selected from 25 female C57BL/6J mice and randomized into 4 groups by body weight via Provantis or Excel, […], and the grouping might also refer to the results of the tear test and the corneal fluorescence staining score of each animal prior to the experiment. • The mice were injected subcutaneously with scopolamine hydrobromide (3±0.5 h) for 4 times daily at 0.1 mL/animal/time on Day 1 to Day 12 of the experiment to establish xerophthalmia models in the mice. • On Day 1 to Day 13 of the experiment, animals were administrated by binocular eye drops for 4 times daily (3±0.5 h) at 3 μL/eye (on Day 13, animals in Group 1 were not administrated). […]
Tear tests and corneal fluorescence staining scores were performed on all experimental animals on Day 7 and Day 12 prior to modeling.
Criteria for corneal fluorescence staining scores: The cornea of an animal was divided into 5 regions, respectively being upper, lower, nasal, temporal and central regions, and each region was 0-3 points, and each region was scored. […]

[4] = In vitro aldehyde capture capacity experiment (complexation with nonanal, HPLC at 254 nm)
From the text: Experimental Embodiment 1: In Vitro Aldehyde Capture Capacity Experiment
1. Experiment Objectives and Processes
Objectives: Xerophthalmia is caused by inflammation inside the eyes, wherein the inflammation may produce aldehydes in the body that will accelerate the inflammation symptoms and worsen the xerophthalmia if not eliminated in time. In the experiment, a relatively good compound was selected according to the complexing capacity of the drug and aldehydes in vivo by simulating the in vivo environment.
Processes: Sulfobutyl-B-cyclodextrin (310 mg) was dissolved in a phosphate buffer (1.25 mL) to prepare a solution.
Nonanal (5.0 mg, 32 μmol, 1.0 eq) and triolein (300 mg) were added to a reaction flask at room temperature, after the prepared solution described above was added thereto, linoleic acid (300 mg) was added thereto, and finally a dimethyl sulfoxide (0.15 mL) solution containing the compound (32 μmol, 1.0 eq) of the present disclosure was added thereto; the reaction solution was reacted at 20-23° C.
The reaction solution was reacted under stirring for 10 min, 100 min, 200 min, and 300 min respectively, and sampled for high performance liquid chromatography after the solution was stratified after standing for 2 min.
Sampling method: 25 μL of an upper emulsified layer and 50 μL of a lower aqueous layer were sampled by a pipette, and samples were diluted with 1 mL of methanol.
Therefore, the percentage contents of complexes at 254 nm under high performance liquid chromatography were compared to observe the ability of compounds to capture and complex aldehydes, as shown in FIG. 4 and Table 6:
The HPLC analysis method is detailed in Table 7, which is XBRIGE 2.5 μm, 3.0*100 mm 5-80CD_XBEH_12 min_0.8.lcm
After 300 min of reaction, retention times of 6.689 min, 6.787 min, 6.966 min, and 7.102 min were absorption peaks of products complexed with monomolecular aldehyde; retention times of 8.905 min, 9.010 min, and 9.075 min were absorption peaks of products complexed with bimolecular aldehyde.

[5] = target: T1, CYP1A2 (Homo sapiens, UniProt P05177); assay: Inhibition of human liver microsomal cytochrome P450 CYP1A2; type: in vitro ADME; conditions: pooled human liver microsomes, probe substrate, NADPH
T1 construct: pooled human liver microsomes were selected as a CYP450 enzyme source; from tissue; host or cells: pooled human liver microsomes
T1 sequence (P05177 1-516): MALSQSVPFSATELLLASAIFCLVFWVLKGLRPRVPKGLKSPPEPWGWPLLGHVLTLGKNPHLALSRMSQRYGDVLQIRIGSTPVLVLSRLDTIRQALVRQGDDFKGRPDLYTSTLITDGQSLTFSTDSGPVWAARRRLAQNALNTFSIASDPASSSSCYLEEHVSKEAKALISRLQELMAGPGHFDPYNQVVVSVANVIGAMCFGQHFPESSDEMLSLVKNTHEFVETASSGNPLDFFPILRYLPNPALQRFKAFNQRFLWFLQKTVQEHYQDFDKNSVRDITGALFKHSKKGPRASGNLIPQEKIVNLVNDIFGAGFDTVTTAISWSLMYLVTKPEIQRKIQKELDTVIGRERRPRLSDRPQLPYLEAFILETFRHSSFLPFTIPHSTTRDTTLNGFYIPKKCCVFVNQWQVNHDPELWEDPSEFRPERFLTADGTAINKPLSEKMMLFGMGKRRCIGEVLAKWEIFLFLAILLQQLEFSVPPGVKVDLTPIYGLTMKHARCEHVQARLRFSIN
From the text: (§2) Experimental objective: To study the inhibitory effect of compounds on human liver microsomal cytochrome P450. Experimental processes: In the study on inhibition of the compounds on the human liver microsomal cytochrome P450 (CYP1A2, CYP2C9, CYP2C19, CYP2D6 and CYP3A4), pooled human liver microsomes were selected as a CYP450 enzyme source.

[6] = target: T2, CYP2C9 (Homo sapiens, UniProt P11712); assay: Inhibition of human liver microsomal cytochrome P450 CYP2C9; type: in vitro ADME; conditions: pooled human liver microsomes, probe substrate, NADPH
T2 construct: pooled human liver microsomes were selected as a CYP450 enzyme source; from tissue; host or cells: pooled human liver microsomes
T2 sequence (P11712 whole entry): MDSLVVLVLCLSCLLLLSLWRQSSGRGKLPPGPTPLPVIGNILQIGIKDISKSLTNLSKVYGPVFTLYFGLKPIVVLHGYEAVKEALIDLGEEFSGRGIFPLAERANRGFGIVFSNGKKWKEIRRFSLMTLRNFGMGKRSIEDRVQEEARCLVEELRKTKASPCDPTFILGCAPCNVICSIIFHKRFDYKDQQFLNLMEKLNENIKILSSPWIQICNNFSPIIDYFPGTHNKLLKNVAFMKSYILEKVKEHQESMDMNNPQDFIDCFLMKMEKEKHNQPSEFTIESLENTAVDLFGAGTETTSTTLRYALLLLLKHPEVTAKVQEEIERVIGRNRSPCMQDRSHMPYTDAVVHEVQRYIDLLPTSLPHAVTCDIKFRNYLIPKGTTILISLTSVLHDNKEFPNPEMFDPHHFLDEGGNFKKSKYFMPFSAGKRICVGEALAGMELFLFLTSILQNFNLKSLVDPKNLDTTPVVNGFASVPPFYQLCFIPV
From the text: as §2

[7] = target: T3, CYP2D6 (Homo sapiens, UniProt P10635); assay: Inhibition of human liver microsomal cytochrome P450 CYP2D6; type: in vitro ADME; conditions: pooled human liver microsomes, probe substrate, NADPH
T3 construct: pooled human liver microsomes were selected as a CYP450 enzyme source; from tissue; host or cells: pooled human liver microsomes
T3 sequence (P10635 whole entry): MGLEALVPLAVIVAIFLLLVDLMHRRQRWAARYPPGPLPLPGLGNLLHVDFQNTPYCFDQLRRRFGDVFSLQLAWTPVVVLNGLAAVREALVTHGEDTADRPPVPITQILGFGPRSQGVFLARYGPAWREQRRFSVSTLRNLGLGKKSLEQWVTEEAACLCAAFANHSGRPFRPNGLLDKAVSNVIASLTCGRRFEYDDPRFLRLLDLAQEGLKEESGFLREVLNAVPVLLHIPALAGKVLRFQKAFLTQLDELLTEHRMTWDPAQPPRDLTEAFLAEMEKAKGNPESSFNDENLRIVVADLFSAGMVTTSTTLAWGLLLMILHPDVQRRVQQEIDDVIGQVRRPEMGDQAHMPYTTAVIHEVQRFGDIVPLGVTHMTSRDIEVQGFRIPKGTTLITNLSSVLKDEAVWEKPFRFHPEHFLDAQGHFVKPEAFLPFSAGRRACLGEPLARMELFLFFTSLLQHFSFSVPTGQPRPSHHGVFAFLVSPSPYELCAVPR
From the text: as §2

[8] = target: T4, CYP3A4 (Homo sapiens, UniProt P08684); assay: Inhibition of human liver microsomal cytochrome P450 CYP3A4; type: in vitro ADME; conditions: pooled human liver microsomes, two probe substrates, NADPH
T4 construct: pooled human liver microsomes were selected as a CYP450 enzyme source; from tissue; host or cells: pooled human liver microsomes
T4 sequence (P08684 whole entry): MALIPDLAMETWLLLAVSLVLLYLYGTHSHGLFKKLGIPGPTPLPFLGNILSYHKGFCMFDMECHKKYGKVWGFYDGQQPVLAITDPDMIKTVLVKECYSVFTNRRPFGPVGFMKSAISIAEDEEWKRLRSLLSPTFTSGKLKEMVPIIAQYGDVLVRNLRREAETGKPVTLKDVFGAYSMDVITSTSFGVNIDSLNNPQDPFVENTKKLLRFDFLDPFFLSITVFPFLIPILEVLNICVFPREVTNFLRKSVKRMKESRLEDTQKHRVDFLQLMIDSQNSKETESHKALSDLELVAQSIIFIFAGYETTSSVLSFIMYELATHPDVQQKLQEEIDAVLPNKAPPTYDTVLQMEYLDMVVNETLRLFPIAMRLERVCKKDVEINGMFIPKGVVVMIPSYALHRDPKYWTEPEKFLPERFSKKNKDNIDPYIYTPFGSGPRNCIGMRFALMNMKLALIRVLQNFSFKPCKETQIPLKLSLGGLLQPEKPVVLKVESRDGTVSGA
From the text: as §2

[9] = Pharmacokinetics in Beagle dogs, single intravenous injection; type: in vivo; conditions: male, dog, plasma, 1 mg/kg single intravenous injection
Protocol: Experimental objective: To study pharmacokinetics of the compound in Beagle dogs
Experimental material: Beagle dogs (male, 8-11 kg, greater than or equal to 6 months, Marshall)
as §1, with “rodents” for “monkeys”, “Beagle dogs” for “cynomolgus monkeys”, “hours, respectively,” for “hours,”

[10] = target: T5, CYP2C19 (Homo sapiens, UniProt P33261); assay: Inhibition of human liver microsomal cytochrome P450 CYP2C19; type: in vitro ADME; conditions: pooled human liver microsomes, probe substrate, NADPH
T5 construct: pooled human liver microsomes were selected as a CYP450 enzyme source; from tissue; host or cells: pooled human liver microsomes
T5 sequence (P33261 whole entry): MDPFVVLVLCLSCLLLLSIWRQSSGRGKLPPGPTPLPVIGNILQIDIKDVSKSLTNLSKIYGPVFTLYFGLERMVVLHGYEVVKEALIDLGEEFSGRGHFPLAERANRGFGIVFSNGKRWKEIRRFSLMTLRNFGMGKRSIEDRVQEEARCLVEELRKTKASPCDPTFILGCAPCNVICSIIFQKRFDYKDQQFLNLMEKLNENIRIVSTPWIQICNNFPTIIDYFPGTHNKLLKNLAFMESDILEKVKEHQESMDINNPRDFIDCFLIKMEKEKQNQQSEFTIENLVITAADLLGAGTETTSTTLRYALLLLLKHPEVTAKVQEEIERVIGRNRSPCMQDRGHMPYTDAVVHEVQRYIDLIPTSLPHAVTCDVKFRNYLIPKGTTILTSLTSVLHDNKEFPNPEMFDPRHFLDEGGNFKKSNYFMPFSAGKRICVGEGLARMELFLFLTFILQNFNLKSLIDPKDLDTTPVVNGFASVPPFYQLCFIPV
From the text: as §2

[11] = read-out: Area under the concentration-time curve AUC
[12] = read-out: Half-life T1/2 (converted)

For CC(C)(O)c1cc(F)c(-c2cnc(C(C)(C)O)c(N)c2)cc1N [Compound represented by formula (I)], the concentration at 1 h ([1]; cornea, eye drops 5 mg/mL, 1 h, read-out: Corneal concentration) was 2450 nM, the concentration at 4 h ([1]; cornea, eye drops 5 mg/mL, 4 h, read-out: Corneal concentration) was 330 nM and the Kp ([1]; cornea/plasma, 5 mg/mL, eye drop administration, read-out: Ratio of cornea/plasma) was > 10. The Kp at 1 h ([1]; cornea/plasma, eye drops 5 mg/mL, 1 h, read-out: Corneal concentration/plasma concentration C/P ratio) was 11.8, the Kp at 4 h ([1]; cornea/plasma, eye drops 5 mg/mL, 4 h, read-out: Corneal concentration/plasma concentration C/P ratio) was 12.4 and the concentration at 1 h ([1]; plasma, eye drops 5 mg/mL, 1 h, read-out: Plasma concentration) was 172 nM. For the same compound, the concentration at 4 h ([1]; plasma, eye drops 5 mg/mL, 4 h, read-out: Plasma concentration) was 24.4 nM, the AUC [2, 11] was 13 µM·h and the clearance ([2]; read-out: Clearance rate) was 4.6 mL/min/kg. The half-life [2, 12] was 3.91 h, the Tear secretion ([3]; FIG. 5) was “improve” and the “Corneal inflammation (corneal fluorescence staining)” value ([3]; FIG. 6) was “improve”. The “Ability and speed of complexing aldehydes” value [4] was “very significant”, the “Percentage content of complexes at 254 nm” value (“Percentage content” below) ([4]; Time 10 min) was 6.634% and the “Percentage content” value ([4]; Time 100 min) was 20.013%. The “Percentage content” value ([4]; Time 200 min) was 29.424%, the “Percentage content” value ([4]; Time 300 min) was 36.039% and the “Area under the curve AUC” value ([4]; percentage content of complexes at 254 nm versus time, 10-300 min) was 6944 min.conversion. For the same compound, the Slope ([4]; slope of linear equation, percentage content of complexes at 254 nm versus time 10-300 min, nonanal 1.0 eq, 20-23° C.) was 0.1002, the IC50 [5] was > 50 µM and the IC50 [6] was > 50 µM. The IC50 [7] was > 50 µM, the IC50 [8] was > 50 µM and the AUC [9, 11] was 4.67 µM·h. For the same compound, the clearance ([9]; read-out: Clearance rate) was 11.3 mL/min/kg, the half-life [9, 12] was 2.94 h and the IC50 [10] was > 50 µM.
